Reference: patent US20250302846A1, “ANTIBIOTIC COMPOSITION AND METHODS OF USE THEREOF” (THE REGENTS OF THE UNIVERSITY OF COLORADO A BODY CORPORATE, priority 2022, published 2025)
Like-named read-outs stand apart in the source and are kept apart here.

Assays:
[1] = system: S. Typhimurium strain SL1344; type: in vivo
Protocol: (§1) FIG. 5A-C. […] Mice were euthanized 48 hours after infection. […] Significance was determined by Mann-Whitney.
Female C57Bl/6 7-8-week-old mice were IP inoculated with S. Typhimurium strain SL1344. Six mice per cohort were IP-treated with 100 μL of vehicle (50% DMSO), 50 mg/kg of chloramphenicol, or 50 mg/kg of D66 at 10 minutes and 24 hours post-infection. Mice were euthanized at 48 hours by CO2 asphyxiation, followed by cervical dislocation. Spleen and liver were collected, homogenized in 1 mL PBS and serially diluted for plating to enumerate CFU. The experiment was performed twice independently with 7×10^3 CFU, 3×10^4 CFU respectively, as determined by plating. A ROUT test for outliers and a Mann-Whitney test for significance were performed in GraphPad Prism.

[2] = system: S. Typhimurium SL1344 or 14028 in RAW 264.7 cells; test: CFU assay in infected RAW 264.7 macrophages; type: cell-based; settings: for IC50: Salmonella enterica, TYPHIMURIUM
Protocol: FIG. 1A-D. D66 is a small molecule that prevents S. Typhimurium replication and/or survival in macrophages. A). Structure of D66. B) RAW264.7 macrophage-like cells were infected with S. Typhimurium harboring a chromosomal sifB: : gfp reporter, treated with DMSO or D66 at two hours after infection, and monitored for bacterial accumulation (GFP+Macrophage Area) over 16 hours using the SAFIRE (Screen for Anti-infectives using Fluorescence microscopy of Intracellular Enterobacteriaceae) assay. The IC50 value is indicated. Mean and SD of biological duplicates with technical duplicates across 9 dilutions of D66. C, D) CFU assays were performed with RAW264.7 or HeLa cells infected with S. Typhimurium SL1344 or 14028 for two hours and treated for 16 hours with DMSO or 1.5-fold dilutions of D66, prior to lysis and plating for CFU. Symbols on the Y-axes are the CFU value from DMSO-treated samples. The IC50 values are indicated. Mean and SEMs of biological triplicates with technical duplicates across 8 dilutions of D66.
CFU assays were performed with RAW 264.7 cells seeded as above or with Hela cells (ATCC CCL-2) seeded at 1x10^4 cells per 96-well. Cells were infected as described above with either S. Typhimurium SL1344 or 14028, as indicated at an approximate MOI of 30 bacteria per RAW 264.7 cell and 150 bacteria per HeLa cell. Plates were centrifuged and gentamicin treated as above. At 18 hours after infection, wells were washed twice with PBS and lysed with 30 μL 0.1% Triton X-100 in PBS for five minutes. Lysed cells were plated to L-agar and enumerated for CFU.

[3] = Murine tolerability after a single dose; type: in vivo, C57BL/6 mice; settings: mice
Protocol: Murine pharmacokinetic analyses and infections: Three female C57BL/6 mice were injected intraperitoneally (IP) with 50 mg/kg of D66 formulated in DMSO (50 μL). […] Three mice were initially dosed and observed for 24 hours to determine tolerability. […] Plasma D66 levels were measured using a liquid chromatography coupled to tandem mass spectrometry (LC/MS/MS) assay by the University of Colorado Cancer Center Drug Discovery and Development Shared Resource. The assay used monitored the transition of D66 (376 m/z->176 m/z) and was linear from 1-1000 ng/ml with an accuracy and precision of 90.3%+10.4% (% CV) based on quality control (QC) samples included with analyzed unknown samples.

S. aureus FDA209 = test: Membrane permeability by PI fluorescence; type: cell-based; settings: mid-log S. aureus FDA209
Protocol: Mid-log phase S. aureus FDA209 cells were used for all experiments. A) Membrane fluidity was evaluated with a Laurdan generalized polarization (GP) assay. Cells were exposed at time 0 to DMSO, benzyl alcohol (BnOH, a membrane fluidizer [50 mM]), or D66 (1x MIC95=130 μM). Mean and SEM of three biological replicates performed with technical triplicates. B) Membrane permeability was monitored by PI fluorescence. Cells were exposed at time 0 to DMSO, SDS [0.3%], or D66. Samples were processed at the timepoints shown. Mean and SEM of three biological replicates performed with technical triplicates. C) Intracellular pH was monitored with the fluorescent probe BCECF-AM. Cells were exposed at time 0 to DMSO, the protonophore CCCP [100 μM], or D66. Mean and SEM of three biological replicates performed with technical triplicates. D) Intracellular ATP levels measured using the Promega BacTiter-Glo kit after 30 minutes of treatment with DMSO, chloramphenicol (Chlor), or D66. Mean and SEM of three biological replicates performed with technical triplicates. E) Respiration rates of cells incubated with resazurin and treated at time 0 as indicated. Mean and […]

RAW 264.7 cells = test: LDH release assay; type: cell-based
Protocol: as §1
LDH assays: An LDH-cytotoxicity assay kit (Abcam ab65393) was used according to the manufacturer's instructions. RAW 264.7 cells were seeded and remained uninfected or with infected as described for the CFU assay with SL1344.

[4] = system: 5-day-old staphylococcal biofilms; test: 5-day-old staphylococcal biofilms; type: cell-based; settings: biofilms established 5 days in TSB, treated 18 hours, crystal violet
Protocol: (A-D). For the indicated strain, biofilms established in TSB for 5-days were treated for 18 hours with DMSO, rifampin (1x MIC95=0.05 μg/mL), vancomycin (1x MIC95=1 μg/mL), or D66 (Table 1). The remaining biofilm extracellular matrix was stained with crystal violet and the A595 was measured. Mean and SEM of three biological replicates performed with technical triplicates are shown. Asterisks indicate P≤0.05 as determined by one-way ANOVA compared to DMSO.

O=C(Nc1cc(Cl)cc(Cl)c1)N1CCCN(Cc2ccccc2)CC1 [D66]
S. Typhimurium colonization of spleen and liver (tissue CFU) ([1]; C57Bl/6 mice, 50 mg/kg IP at 10 minutes and 24 hours post-inoculation, 48 hours, P<0.05 Mann-Whitney): reduced S. Typhimurium colonization in both tissues | survival and condition of infected treated mice ([1]; female, C57Bl/6, mouse, in vivo, ip, 50 mg/kg, 48 h): survived in good condition out to 48 hours | IC50 ([2]; RAW264.7, 16 h, S. Typhimurium 14028 in macrophages, treated 16 hours, read-out: CFU IC50): 4.9 µM | IC50 ([2]; RAW264.7, 16 h, S. Typhimurium SL1344 in macrophages, treated 16 hours, read-out: CFU IC50): 7.7 µM | IC50 ([2]; RAW264.7, as quoted for dose selection, read-out: IC50 of D66 against S. Typhimurium in macrophages): ~7.8 µM | CFU reduction ([2]; macrophages): > 1000 fold | observable toxicity and gross pathological lesions in liver, kidney, and gastrointestinal tissues ([3]; 50 mg/kg IP, observed for 24 hours): lack of observable toxicity and gross pathological lesions | adverse effects (hunching, tachypnea, or abnormal ambulation) ([3]; single intraperitoneal dose of 50 mg/kg, after 24 hours): No adverse effects | cell membrane rupture (PI permeability) (S. aureus FDA209): does not rupture the cell membrane | LDH release (RAW 264.7 cells; RAW 264.7 cells infected with S. Typhimurium SL1344, 16 hours): reduced the percentage of cells that released LDH in a dose-dependent manner | LDH release (RAW 264.7 cells; uninfected RAW 264.7 cells, 16 hours): little effect on LDH release | reduction of 5-day-old biofilms [4]: minimally effective
